Assay results reported in PubChem BioAssay (NCI).
Where “and” joins values, the source holds several entries; their conditions need not be identical. Equal entries are not always repeated.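 Dose response: 5 concentrations. Exposure: 48 h. Format: 96-well plates. Endpoint: linear interpolation; highest concentration if not reached. Abbreviation: GI50, concentration required for 50% inhibition of growth. TGI: total growth inhibition.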

Tests used:
Experiment in all cases: NCI-60 cell line screen, 48 h
[1] = tested on: 786-0 renal
[2] = tested on: A549 NSCLC
[3] = tested on: HCC-2998 colon
[4] = tested on: MDA-MB-231 breast
[5] = tested on: NCI-H23 lung
[6] = tested on: NCI-H522 lung
[7] = tested on: OVCAR-3 ovarian
[8] = tested on: RXF 393 renal
[9] = tested on: SF-295 CNS
[10] = tested on: SK-MEL-2 melanoma

SMILES | GI50 [1] | TGI [1] | GI50 [2] | TGI [2] | GI50 [3] | TGI [3] | GI50 [4] | TGI [4] | GI50 [5] | TGI [5] | GI50 [6] | TGI [6] | GI50 [7] | TGI [7] | GI50 [8] | TGI [8] | GI50 [9] | TGI [9] | GI50 [10] | TGI [10]
CC(C)(C)n1cc(-c2ccnc(NCCNS(=O)(=O)c3ccc(Br)cc3)c2)c(-c2cccc(O)c2)n1 | 1.72 µM | 3.82 µM | 2190 nM | 6.5 µM | 1840 nM | 3.53 µM | 1910 nM | 4.07 µM | 1850 nM | 3.97 µM | 1790 nM | 4.04 µM | 1850 nM | 3.68 µM | 1490 nM | 3.23 µM | 1820 nM | 3.61 µM | 1930 nM | 3.99 µM
O=C1C=C(Nc2cccc(Br)c2)c2ccccc2C1=O | 7.25 µM | 28.2 µM | 1540 nM | 12.3 µM | 12100 nM | > 100 µM | 1510 nM | 36.5 µM | – | – | 4790 nM | 60.1 µM | 2890 nM | 16 µM | 3270 nM | 22.4 µM | 3210 nM | 15.1 µM | 785 nM | 22 µM
Cc1c(C(C)C)cc(OCCO)cc1C(C)C | – | 63 µM | – | > 100 µM | – | > 100 µM | – | 80 µM | – | > 100 µM | – | 81.5 µM | – | > 100 µM | – | 36.2 µM | – | > 100 µM | – | 57.3 µM
COc1ccc(C[C@H]2C[C@@H](O)[C@@H](C)C/C=C/Cc3cccc(O)c3C(=O)O2)cn1 | 18 µM | 77.7 µM | 28600 nM | > 100 µM | 17400 nM | 44.8 µM | 16400 nM | 39.6 µM | 24200 nM | 56.8 µM | 14200 nM | 49.1 µM | 50500 nM | > 100 µM | 30500 nM | > 100 µM | 18000 nM | 41.5 µM | 14700 nM | 34.5 µM
O=C(Oc1c(I)ccccc1=O)c1ccc([N+](=O)[O-])cc1 | – | > 100 µM | – | 63.2 µM | – | 49.5 µM | – | 87.7 µM | – | 99.6 µM | – | 36.7 µM | – | 40.1 µM | – | 21.7 µM | – | 62.1 µM | – | 45.1 µM
Cc1ccc([P+](Cc2ccc([N+](=O)[O-])cc2)(c2ccc(C)cc2)c2ccc(C)cc2)cc1 | 9.72 µM | 22.3 µM | 14400 nM | 57 µM | 2870 nM | 11.8 µM | 1460 nM | 7.38 µM | – | – | 1560 nM | 4.26 µM | 1710 nM | 7.07 µM | 5550 nM | 20.2 µM | 5240 nM | 18.6 µM | 1960 nM | 4.51 µM
COC(=O)[C@H](Cc1ccccc1)NC(=O)c1csc([C@@H](C[C@H](C(C)C)N(C)C(=O)[C@@H](NC(=O)[C@H]2CCCCN2C)C2CC2)OC(C)=O)n1 | 0.064 µM | > 25 µM | 99.1 nM | > 25 µM | 162 nM | > 25 µM | 76.3 nM | > 12.5 µM | 146 nM | > 25 µM | 6.54 nM | 0.3 µM | 10.2 nM | 0.063 µM | 35.1 nM | > 25 µM | 33.4 nM | > 25 µM | 492 nM | > 25 µM
Nc1ncnc2occ(-c3ccc(NC(=O)Nc4cc(C(F)(F)F)cc(C(F)(F)F)c4)cc3)c12 | 3.54 µM | 7.07 µM | 3000 nM | 7.18 µM | 4630 nM | 8.27 µM | 4300 nM | 9.09 µM | 3120 nM | 6.86 µM | 2550 nM | 5.67 µM | 3240 nM | 6.71 µM | 1240 nM | 4.51 µM | 2720 nM | 6.53 µM | 3720 nM | 7.47 µM
Oc1cccc(-c2nc3ccccc3s2)c1 | – | > 100 µM | – | > 100 µM | – | – | – | 56.2 µM | – | 69.6 µM | – | 51 µM | – | > 100 µM | – | > 100 µM | – | 86.7 µM | – | > 100 µM
CC1Cc2c(N(C)C)ncnc2N(C)c2ccc(Cl)cc21 (centres undefined) | 8.26 µM | 29.3 µM | 10700 nM | > 100 µM | 6900 nM | 37.3 µM | 5840 nM | 55.4 µM | 5740 nM | > 100 µM | 2790 nM | 35.3 µM | 2510 nM | 8.88 µM | 2030 nM | 6.98 µM | 1980 nM | 9.85 µM | 5880 nM | 57.3 µM
O=C(/C=C/N1CCN(c2cccc(C(F)(F)F)c2)CC1)c1ccc(Cl)cc1Cl | 20.8 µM | 39.8 µM | 39800 nM | > 100 µM | – | – | 26800 nM | 59.8 µM | 23200 nM | 75.3 µM | 36100 nM | > 100 µM | 2440 nM | 19.3 µM | 30900 nM | 73.4 µM | 14700 nM | 32.4 µM | 37500 nM | > 100 µM
CCOP(=O)(OCC)/C(C#N)=C\c1cccc2ccccc12 | – | > 100 µM | – | > 100 µM | – | > 100 µM | – | > 100 µM | – | > 100 µM | – | > 100 µM | – | > 100 µM | – | > 100 µM | – | > 100 µM | – | > 100 µM
CN1C(=O)c2cc(Cl)nc3c(NC(=O)c4cccc(Cl)c4)c(Cl)c(NC(=O)c4cccc(Cl)c4)c1c23 | 2.69 µM | 7.96 µM | 4140 nM | 14.8 µM | 1760 nM | 3.41 µM | 2050 nM | 4.24 µM | 2140 nM | 5.92 µM | 1820 nM | 3.75 µM | 1920 nM | 3.57 µM | 1670 nM | 3.12 µM | 2870 nM | 11.6 µM | 2190 nM | 4.35 µM
Cn1c(=O)n(-c2ccc(C(C)(C)C#N)cc2)c2c3cc(-c4cnc5ccccc5c4)ccc3ncc21 | < 0.0118 µM and 0.00542 µM and < 0.01 µM | – | 10.2 nM and 5.94 nM and < 10 nM | – | < 10 nM and 6.1 nM | > 100 µM | 19.7 nM and 6.86 nM and < 11 nM | 48.5 µM and > 10 µM and > 44.3 µM | 16.9 nM and 8.38 nM and < 12.7 nM | 15.9 µM and > 10 µM and > 100 µM | < 10.7 nM and 6.46 nM and < 11.2 nM | – | < 10 nM and 6.09 nM and 10.1 nM | – | < 10 nM and 3.51 nM | 0.0605 µM and 0.00781 µM and 0.0181 µM | < 10 nM and 4.01 nM | 0.0278 µM and 0.0203 µM and 0.0181 µM | 12 nM and 5.98 nM and 13.7 nM | 0.0505 µM and 0.292 µM and 0.0744 µM
